Laboratory results reported in ChEMBL document CHEMBL1201862, “PubChem BioAssay data set” (2004).
Activity calls are given as the source filed them.

What was measured:
[1] = system: Candida albicans; experiment: reversal of fluconazole resistance in C. albicans, dose response, CaCi-2 strain, Alamar Blue, dry powder, set 3 (AID 488907); type: functional, organism-based
[2] = system: Candida albicans; experiment: fluconazole resistance reversal in C. albicans, dose response, CaCi-2 strain, Alamar Blue, dry powder, set 4 (AID 488943); type: functional, organism-based
[3] = system: Candida albicans; experiment: growth inhibition of resistant C. albicans, dose response, CaCi-8 strain, fluconazole, dry powder, set 4 (AID 488950); type: functional, organism-based
[4] = biological target: DNA topoisomerase (Yersinia pestis, UniProt A0A2S9PM60); experiment: Y. pestis Topo-I inhibitors, cleavage product readout, dose response, biochemical, cherry-pick (AID 588525)
[5] = Luminescence Cell-Based Dose Retest to Confirm Inhibitors of Cancer Stem Cells. [Related pubchem assays (depositor defined):AID2717, AID2721]; type: functional; conditions: Homo sapiens
[6] = system: INS1; experiment: beta cell apoptosis inhibitors, cytokine rescue, dose response, luminescence, retest (AID 449756); type: functional, cell-based; conditions: Rattus norvegicus;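 note: cell death triggered by IL-1 beta plus TNF-alpha plus IFN-gamma mixture; protective hits raise ATP signal compared with cytokine alone wells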
[7] = Shn3 3'UTR reporter inhibitors, dose response, cell-based, Clone20 osteoblasts, firefly luciferase, cherry-picked (AID 624132); type: functional;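 note: firefly luciferase luminescence from reporter carrying the Shn3 3'UTR in osteoblasts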
[8] = biological target: Paired box protein Pax-8 (Homo sapiens, UniProt Q06710); experiment: inhibitors of PAX8-driven TPO luciferase reporter, dose response, RMG-I cells, cherry-pick (AID 687027); type: functional, cell-based;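 note: luciferase reporter driven by Pax8 target thyroperoxidase promoter measured by SteadyGlo luminescence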
[9] = control 3'UTR Renilla luciferase suppression, dose response, counter-screen for Shn3 inhibitor project, cell-based, Clone20-Shn3RL, cherry-picked (AID 624133); type: functional
[10] = MC4R antagonists, dose response, counter-screen for LGR2 antagonist project, cell-based, plate reader, cherry pick (AID 743444); type: functional;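 note: transfected HEK 293 cells stimulated with alpha-MSH peptide; potency of inhibitors of the alpha-MSH evoked signal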
[11] = biological target: T1, Protein skinhead-1 (Caenorhabditis elegans, UniProt P34707); type: functional
T1 sequence (P34707 whole entry): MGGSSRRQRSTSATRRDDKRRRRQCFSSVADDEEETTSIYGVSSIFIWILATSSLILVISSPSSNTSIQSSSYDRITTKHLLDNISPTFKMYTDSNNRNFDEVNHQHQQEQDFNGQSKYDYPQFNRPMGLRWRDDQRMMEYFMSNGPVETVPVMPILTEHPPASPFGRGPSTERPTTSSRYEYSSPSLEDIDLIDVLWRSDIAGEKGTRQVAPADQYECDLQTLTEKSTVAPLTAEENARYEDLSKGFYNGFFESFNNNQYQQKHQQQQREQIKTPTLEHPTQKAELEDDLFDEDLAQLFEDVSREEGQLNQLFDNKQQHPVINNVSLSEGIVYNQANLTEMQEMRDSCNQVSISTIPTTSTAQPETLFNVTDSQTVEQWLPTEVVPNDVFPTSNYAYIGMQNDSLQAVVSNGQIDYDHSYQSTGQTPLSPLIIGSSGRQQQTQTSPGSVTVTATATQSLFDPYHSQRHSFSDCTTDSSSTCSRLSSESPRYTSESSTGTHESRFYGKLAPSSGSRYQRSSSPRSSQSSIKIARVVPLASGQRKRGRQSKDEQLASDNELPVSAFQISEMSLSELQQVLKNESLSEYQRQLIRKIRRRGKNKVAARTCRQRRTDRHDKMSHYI

[12] = HepG2 cell cytotoxicity, dose response, cytotoxicity control, plate reader, cherry-pick, antagonist series (AID 743416); type: functional, cell-based
[13] = system: Jurkat; experiment: antigen receptor-induced NF-kB inhibitors, dose response, Jurkat, luciferase reporter, luminescence, B- and T-cell (AID 489004); type: functional, cell-based; conditions: Homo sapiens;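 note: NF-kB luciferase reporter Jurkat cells stimulated with PMA plus ionomycin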
[14] = biological target: T2, Heat shock factor protein 1 (Mus musculus, UniProt P38532); experiment: inhibition of MG132-induced HSE-luciferase signal, confirmation, cell-based, NIH3T3, luminescence, dose retest (AID 2382); type: functional;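 note: NIH3T3 fibroblasts with HSF1-driven luciferase reporter stressed by proteasome inhibitor MG132; luminescence from HSF1-driven luciferase expression after 8 hours of MG132 stress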
T2 sequence (P38532 whole entry): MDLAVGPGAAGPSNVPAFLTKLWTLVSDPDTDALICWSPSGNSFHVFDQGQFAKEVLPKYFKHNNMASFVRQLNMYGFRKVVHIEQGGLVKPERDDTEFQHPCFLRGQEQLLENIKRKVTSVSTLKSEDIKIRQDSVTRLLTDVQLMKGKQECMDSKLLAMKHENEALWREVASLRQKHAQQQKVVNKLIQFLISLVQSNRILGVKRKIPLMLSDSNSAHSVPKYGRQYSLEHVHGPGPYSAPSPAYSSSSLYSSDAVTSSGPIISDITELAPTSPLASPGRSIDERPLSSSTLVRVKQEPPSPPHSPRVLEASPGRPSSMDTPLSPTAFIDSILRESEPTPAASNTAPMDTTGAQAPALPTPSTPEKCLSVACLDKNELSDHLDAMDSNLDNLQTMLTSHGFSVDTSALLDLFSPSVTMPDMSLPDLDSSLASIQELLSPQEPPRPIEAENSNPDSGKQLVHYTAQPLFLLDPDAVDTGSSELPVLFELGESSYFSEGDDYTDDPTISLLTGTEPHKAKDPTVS

[15] = cytotoxicity in HEK-293T NF-kB-Luc cells, dose response, cytotoxicity control for B/T-cell NF-kB inhibitor project, cell-based, uHTS hits (AID 489019); type: functional;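 note: IC50 reflects cytotoxicity as loss of cell viability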
[16] = HEK293 cell cytotoxicity, dose response, cytotoxicity control, plate reader, cherry-picked samples (AID 743446); type: functional, cell-based
[17] = biological target: Luciferin 4-monooxygenase (Photuris pensylvanica, UniProt Q27757); experiment: firefly luciferase enzyme inhibitors, dose response, counter-screen for HSF-1 reporter inhibitor project, biochemical, Cell Titer Glo, luminescence, cherry-picks (AID 588847)
[18] = HepG2 cell cytotoxicity, dose response, cytotoxicity control for Shn3 inhibitor project, CellTiter-Glo, cherry-picked (AID 624134); type: functional, cell-based
[19] = LGR2 antagonists, dose response, cell-based, HEK293, CRE-luciferase reporter, cherry pick, set 2 (AID 743343); type: functional;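 note: transfected cells were stimulated with diluted bursicon conditioned medium after compound addition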
[20] = biological target: T3, Microphthalmia-associated transcription factor (Homo sapiens, UniProt O75030); experiment: TRPM1 promoter luciferase signal decrease, dose response, MITF inhibitor project, cell-based, SK-MEL-5, cherry-picked, set 3 (AID 493073); type: functional
T3 sequence (O75030 whole entry): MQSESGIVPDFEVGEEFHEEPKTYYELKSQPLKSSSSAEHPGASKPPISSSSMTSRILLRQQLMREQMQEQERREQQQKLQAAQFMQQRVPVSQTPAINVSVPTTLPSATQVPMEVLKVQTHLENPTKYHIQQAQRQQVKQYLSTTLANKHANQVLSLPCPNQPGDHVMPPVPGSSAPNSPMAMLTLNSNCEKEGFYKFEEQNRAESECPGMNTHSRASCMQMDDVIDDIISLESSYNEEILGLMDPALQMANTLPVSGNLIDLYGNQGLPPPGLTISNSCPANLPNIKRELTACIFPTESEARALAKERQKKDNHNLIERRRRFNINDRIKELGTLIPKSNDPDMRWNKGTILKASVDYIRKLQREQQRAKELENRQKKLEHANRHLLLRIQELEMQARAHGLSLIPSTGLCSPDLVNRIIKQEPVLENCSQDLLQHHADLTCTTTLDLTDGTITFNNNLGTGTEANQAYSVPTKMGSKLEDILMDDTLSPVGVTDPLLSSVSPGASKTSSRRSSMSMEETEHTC

[21] = biological target: T4, Sentrin-specific protease 8 (Homo sapiens, UniProt Q96LD8); type: functional
T4 sequence (Q96LD8 whole entry): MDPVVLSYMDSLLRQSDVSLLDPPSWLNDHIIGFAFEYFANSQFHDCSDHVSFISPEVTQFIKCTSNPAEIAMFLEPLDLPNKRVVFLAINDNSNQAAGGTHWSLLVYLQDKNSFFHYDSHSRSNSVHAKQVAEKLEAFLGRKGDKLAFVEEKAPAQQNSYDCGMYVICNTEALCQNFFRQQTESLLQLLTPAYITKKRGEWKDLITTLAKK

[22] = biological target: Caspase-8 (Homo sapiens, UniProt Q14790); experiment: caspase-8 inhibition counter-screen, dose response, selectivity assay for caspase-6 inhibitor project, biochemical, Z-IETD-R110 fluorescence, cherry-picked samples (AID 743294)
[23] = biological target: Caspase-7 (Homo sapiens, UniProt P55210); experiment: human caspase-7 inhibitors, dose response, selectivity assay for caspase-6 inhibitor project, biochemical, DEVD-R110 fluorescence, cherry-pick (AID 743295)
[24] = biological target: Apoptotic protease-activating factor 1 (Homo sapiens, UniProt O14727); type: functional
[25] = biological target: T5, Caspase-6 (Homo sapiens, UniProt P55212); experiment: human caspase-6 inhibitors, dose response, biochemical, VEID-R110 fluorescence, cherry-pick (AID 720632)
T5 sequence (P55212 whole entry): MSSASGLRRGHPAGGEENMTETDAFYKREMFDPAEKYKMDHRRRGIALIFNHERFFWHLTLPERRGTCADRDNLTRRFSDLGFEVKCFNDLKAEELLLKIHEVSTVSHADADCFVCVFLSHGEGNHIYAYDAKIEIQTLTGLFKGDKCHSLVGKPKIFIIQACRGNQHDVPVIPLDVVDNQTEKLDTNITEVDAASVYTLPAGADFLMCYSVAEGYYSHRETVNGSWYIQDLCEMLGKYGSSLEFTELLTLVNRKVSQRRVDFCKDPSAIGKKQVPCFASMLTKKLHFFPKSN

[26] = biological target: Caspase-9 (Homo sapiens, UniProt P55211); experiment: caspase-9 enzyme inhibition, dose response, selectivity assay for caspase-6 inhibitor project, biochemical, fluorescence, plate reader, cherry-picked samples (AID 743293)
[27] = biological target: T4, Sentrin-specific protease 8; type: functional; remark: listed apart in the source

Sequence of Luciferin 4-monooxygenase (Q27757 whole entry): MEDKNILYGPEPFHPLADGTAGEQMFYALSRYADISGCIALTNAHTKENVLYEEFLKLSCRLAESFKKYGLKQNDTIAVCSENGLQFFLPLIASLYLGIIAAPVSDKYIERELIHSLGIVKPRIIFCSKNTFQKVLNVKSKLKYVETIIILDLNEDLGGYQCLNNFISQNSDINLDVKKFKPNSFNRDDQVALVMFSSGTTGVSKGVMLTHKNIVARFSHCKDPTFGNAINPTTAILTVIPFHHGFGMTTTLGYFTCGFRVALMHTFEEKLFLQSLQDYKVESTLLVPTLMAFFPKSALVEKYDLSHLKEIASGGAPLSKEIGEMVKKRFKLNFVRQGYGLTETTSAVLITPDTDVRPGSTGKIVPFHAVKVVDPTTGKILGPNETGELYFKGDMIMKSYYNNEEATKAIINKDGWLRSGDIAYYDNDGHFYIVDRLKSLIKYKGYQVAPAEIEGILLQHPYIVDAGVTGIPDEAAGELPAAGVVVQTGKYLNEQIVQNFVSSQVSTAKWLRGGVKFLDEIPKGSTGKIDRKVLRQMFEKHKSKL
Sequence of Caspase-7 (P55210 24-198 limits assumed): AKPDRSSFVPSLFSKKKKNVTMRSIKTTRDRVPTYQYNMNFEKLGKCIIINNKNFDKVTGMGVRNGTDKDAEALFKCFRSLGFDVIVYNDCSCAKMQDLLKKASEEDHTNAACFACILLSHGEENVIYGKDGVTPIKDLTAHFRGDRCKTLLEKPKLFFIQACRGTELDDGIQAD
Sequence of Caspase-7 (P55210 207-303 limits assumed): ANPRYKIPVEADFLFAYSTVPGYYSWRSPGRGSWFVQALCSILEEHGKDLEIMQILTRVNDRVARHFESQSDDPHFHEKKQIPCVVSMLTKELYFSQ
Sequence of DNA topoisomerase (A0A2S9PM60 whole entry): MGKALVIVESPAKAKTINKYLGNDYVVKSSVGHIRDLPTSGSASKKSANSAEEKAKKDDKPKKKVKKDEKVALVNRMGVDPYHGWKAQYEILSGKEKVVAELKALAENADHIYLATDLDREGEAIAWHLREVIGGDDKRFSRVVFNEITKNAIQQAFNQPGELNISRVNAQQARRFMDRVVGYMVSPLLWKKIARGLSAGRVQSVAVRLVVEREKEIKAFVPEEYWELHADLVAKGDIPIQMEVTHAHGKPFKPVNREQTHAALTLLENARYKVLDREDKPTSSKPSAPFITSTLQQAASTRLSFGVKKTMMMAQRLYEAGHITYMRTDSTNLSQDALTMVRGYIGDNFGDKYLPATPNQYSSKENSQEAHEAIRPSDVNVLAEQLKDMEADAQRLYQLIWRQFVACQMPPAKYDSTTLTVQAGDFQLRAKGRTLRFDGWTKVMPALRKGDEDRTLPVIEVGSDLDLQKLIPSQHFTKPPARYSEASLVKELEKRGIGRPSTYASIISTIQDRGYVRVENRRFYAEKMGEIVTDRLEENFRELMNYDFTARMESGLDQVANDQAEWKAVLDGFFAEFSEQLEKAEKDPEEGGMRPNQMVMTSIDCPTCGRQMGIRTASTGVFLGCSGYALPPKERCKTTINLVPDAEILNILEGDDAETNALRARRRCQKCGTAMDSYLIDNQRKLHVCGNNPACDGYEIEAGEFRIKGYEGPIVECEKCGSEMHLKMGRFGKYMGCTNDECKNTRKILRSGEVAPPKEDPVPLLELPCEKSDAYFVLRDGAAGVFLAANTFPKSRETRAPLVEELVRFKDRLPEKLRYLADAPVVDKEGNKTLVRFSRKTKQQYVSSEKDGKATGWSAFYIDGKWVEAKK
Sequence of Paired box protein Pax-8 (Q06710 whole entry): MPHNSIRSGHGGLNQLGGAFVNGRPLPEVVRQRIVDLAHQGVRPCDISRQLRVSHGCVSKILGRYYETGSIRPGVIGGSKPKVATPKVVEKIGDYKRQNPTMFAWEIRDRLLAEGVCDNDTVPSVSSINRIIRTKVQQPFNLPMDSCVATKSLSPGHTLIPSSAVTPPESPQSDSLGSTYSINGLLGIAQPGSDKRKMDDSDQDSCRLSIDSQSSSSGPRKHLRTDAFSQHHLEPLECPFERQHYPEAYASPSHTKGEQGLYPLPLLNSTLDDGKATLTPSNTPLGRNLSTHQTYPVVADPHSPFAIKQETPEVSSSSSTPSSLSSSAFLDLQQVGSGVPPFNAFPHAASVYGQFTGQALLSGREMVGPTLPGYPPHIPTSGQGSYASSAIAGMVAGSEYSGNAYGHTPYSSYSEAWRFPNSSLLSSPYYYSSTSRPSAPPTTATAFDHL
Sequence of Caspase-9 (P55211 1-315 limits assumed): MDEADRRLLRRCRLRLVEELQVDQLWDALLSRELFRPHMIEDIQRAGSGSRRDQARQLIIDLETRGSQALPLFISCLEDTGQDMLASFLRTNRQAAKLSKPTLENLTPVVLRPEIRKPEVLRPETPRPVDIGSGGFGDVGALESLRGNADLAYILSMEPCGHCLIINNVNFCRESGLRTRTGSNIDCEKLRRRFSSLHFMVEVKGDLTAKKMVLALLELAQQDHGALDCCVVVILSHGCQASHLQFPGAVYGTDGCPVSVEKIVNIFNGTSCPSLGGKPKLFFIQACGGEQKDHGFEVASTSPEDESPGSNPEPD
Sequence of Caspase-9 (P55211 331-416 limits assumed): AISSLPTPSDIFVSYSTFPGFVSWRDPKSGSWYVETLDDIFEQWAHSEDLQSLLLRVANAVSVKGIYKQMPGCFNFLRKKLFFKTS
Sequence of Apoptotic protease-activating factor 1 (O14727 whole entry): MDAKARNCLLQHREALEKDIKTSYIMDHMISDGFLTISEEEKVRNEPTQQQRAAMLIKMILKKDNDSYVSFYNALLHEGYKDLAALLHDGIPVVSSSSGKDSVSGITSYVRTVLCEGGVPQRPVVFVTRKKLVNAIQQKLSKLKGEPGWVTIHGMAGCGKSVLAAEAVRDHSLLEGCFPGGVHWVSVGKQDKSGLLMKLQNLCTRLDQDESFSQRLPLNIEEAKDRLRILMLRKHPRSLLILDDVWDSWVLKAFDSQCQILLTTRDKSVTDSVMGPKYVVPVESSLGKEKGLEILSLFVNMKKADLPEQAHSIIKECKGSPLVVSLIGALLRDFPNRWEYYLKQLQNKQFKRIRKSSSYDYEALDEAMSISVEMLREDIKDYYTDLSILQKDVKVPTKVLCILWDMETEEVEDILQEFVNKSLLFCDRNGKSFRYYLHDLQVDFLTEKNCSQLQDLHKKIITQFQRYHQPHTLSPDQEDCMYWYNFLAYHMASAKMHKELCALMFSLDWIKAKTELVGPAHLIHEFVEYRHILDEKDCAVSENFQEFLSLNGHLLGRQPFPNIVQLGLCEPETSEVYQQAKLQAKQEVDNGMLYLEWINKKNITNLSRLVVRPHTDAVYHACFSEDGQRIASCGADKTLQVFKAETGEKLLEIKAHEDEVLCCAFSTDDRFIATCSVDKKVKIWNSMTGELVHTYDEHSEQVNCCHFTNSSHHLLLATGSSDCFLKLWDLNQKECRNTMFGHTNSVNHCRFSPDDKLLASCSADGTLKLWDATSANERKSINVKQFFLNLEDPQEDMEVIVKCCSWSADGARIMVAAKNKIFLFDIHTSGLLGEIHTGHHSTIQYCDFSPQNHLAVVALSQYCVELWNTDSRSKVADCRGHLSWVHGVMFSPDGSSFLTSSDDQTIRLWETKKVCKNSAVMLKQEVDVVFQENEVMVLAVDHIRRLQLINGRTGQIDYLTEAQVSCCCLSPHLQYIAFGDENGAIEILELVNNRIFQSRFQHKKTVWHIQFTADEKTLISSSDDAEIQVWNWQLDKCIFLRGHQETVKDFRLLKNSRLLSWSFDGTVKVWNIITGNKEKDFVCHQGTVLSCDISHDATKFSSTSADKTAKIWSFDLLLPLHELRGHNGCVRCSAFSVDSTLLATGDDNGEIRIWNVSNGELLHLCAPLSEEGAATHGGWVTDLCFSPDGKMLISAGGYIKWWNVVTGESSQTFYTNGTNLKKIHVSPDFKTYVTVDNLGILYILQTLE
Sequence of Caspase-8 (Q14790 217-374 limits assumed): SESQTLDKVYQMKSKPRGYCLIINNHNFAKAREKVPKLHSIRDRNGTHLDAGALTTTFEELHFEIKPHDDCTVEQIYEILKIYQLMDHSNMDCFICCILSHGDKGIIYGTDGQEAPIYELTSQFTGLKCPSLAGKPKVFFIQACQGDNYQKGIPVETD
Sequence of Caspase-8 (Q14790 385-479 limits assumed): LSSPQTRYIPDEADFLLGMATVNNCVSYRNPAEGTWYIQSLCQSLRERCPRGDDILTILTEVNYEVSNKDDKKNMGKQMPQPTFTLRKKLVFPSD

O=C(c1ccc(Cl)cc1)N1CCN(c2nc3ccccc3o2)CC1
active: AC50 [1] 0.465 µM | AC50 [2] 14.9 µM | AC50 [3] 0.176 µM

O=C(NCCN(CCNC(=O)c1nc[nH]c1C(=O)Nc1ccc(Cl)cc1)CCNC(=O)c1nc[nH]c1C(=O)Nc1ccc(Cl)cc1)c1nc[nH]c1C(=O)Nc1ccc(Cl)cc1
active: AC50 [4] 6.39 µM | AC50 [5] 1.67 µM | AC50 [6] 7.12 µM

CN(C(=O)OC(C)(C)C)c1ccc(-c2nc3ccccc3s2)cc1
inactive: IC50 [11] > 100 µM | AC50 [12] > 52 µM | IC50 [15] > 80 µM | AC50 [18] > 70 µM
active: AC50 [7] < 0.26 µM | AC50 [8] 0.379 µM | AC50 [9] 7.35 µM | AC50 [10] < 0.068 µM | IC50 [13] < 0.16 µM | EC50 [14] < 0.16 µM | AC50 [16] 46.5 µM | AC50 [17] 1.42 µM | AC50 [19] < 0.068 µM

Oc1cc(NCCN2CCOCC2)cc2cccnc12
active: AC50 [20] 25.9 µM | IC50 [21] 4.63 µM | AC50 [22] 17.6 µM | AC50 [23] 3.53 µM | IC50 [24] 8.53 µM | AC50 [25] 3.39 µM | AC50 [26] 15.9 µM | IC50 [27] 2.68 µM
